Results reported in patent US6528504B2, “Oxazepine derivatives and medicine containing the same” (Ajinomoto Co., Inc., priority 1999, dated 2003).
Where a name gives a salt, the structure may show the parent alone.

Experiments:
[1] = target: calcium channel (blood vessel, thoracic aorta) (Rattus norvegicus, UniProt P22002); assay: In vitro calcium channel antagonistic effect (blood vessel): inhibition of high potassium contraction of helical thoracic aorta samples; conditions: high potassium (45.0 mM KCl) contraction, 10^−7 M test compound, 30 minute pretreatment, read-out: Inhibition rate (%) (conc: 10^−7 M)
Experimental: In vitro calcium channel antagonistic effect (blood vessel)
(§1) The thoracic aorta was extracted from each of male Crj:CD rats (8 to 12 weeks old) to prepare helical samples. The blood vessel samples were suspended in 37° C. Tyrode's solution through which a gaseous mixture (95% of oxygen and 5% of carbon dioxide) was passed. For examining the change in tensile strength of the blood vessel, the isometry thereof was recorded on a pen-writing recorder through a transducer. The high potassium contraction was caused by exchanging the nutrient solution from Tyrode's solution to potassium-Tyrode's solution (94.6 mM of NaCl, 45.0 mM of KCl, 1.8 mM of CaCl2, 1.04 mM of MgCl2, 0.4 mM of NaH2PO4, 11.9 mM of NaHCO3 and 5.55 mM of glucose). The high potassium contraction-inhibiting effect of a test compound was evaluated by 30 minute pretreatment. Compound A described in European Patent No. 0404359A1 and compound B described in International Patent No. 9733885A1 were used as comparative substances. The calcium channel antagonistic activity was shown as the rate (%) of inhibition of control of high-calcium contraction with 10^−7 M test compound.

calcium channel (ileum) = calcium channel (ileum) (Rattus norvegicus, UniProt P22002); assay: In vitro calcium channel antagonistic effect (ileum): inhibition of high potassium contraction of ileum samples; conditions: high potassium (45.0 mM KCl) contraction, 10^−7 M test compound, 30 minute pretreatment, read-out: Inhibition rate (%) (conc.: 10^−7M)
Experimental: In vitro calcium channel antagonistic effect (ileum)
as §1, with “ileum of” for “thoracic aorta was extracted from”, “was extracted at a part 3 cm apart from the ileocecal region.” for “to prepare helical samples.”, “ileum sample was” for “blood vessel samples were”, “ileum,” for “blood vessel,”, “isotonicity” for “isometry”

Sequence of calcium channel (blood vessel, thoracic aorta) (P22002 whole entry): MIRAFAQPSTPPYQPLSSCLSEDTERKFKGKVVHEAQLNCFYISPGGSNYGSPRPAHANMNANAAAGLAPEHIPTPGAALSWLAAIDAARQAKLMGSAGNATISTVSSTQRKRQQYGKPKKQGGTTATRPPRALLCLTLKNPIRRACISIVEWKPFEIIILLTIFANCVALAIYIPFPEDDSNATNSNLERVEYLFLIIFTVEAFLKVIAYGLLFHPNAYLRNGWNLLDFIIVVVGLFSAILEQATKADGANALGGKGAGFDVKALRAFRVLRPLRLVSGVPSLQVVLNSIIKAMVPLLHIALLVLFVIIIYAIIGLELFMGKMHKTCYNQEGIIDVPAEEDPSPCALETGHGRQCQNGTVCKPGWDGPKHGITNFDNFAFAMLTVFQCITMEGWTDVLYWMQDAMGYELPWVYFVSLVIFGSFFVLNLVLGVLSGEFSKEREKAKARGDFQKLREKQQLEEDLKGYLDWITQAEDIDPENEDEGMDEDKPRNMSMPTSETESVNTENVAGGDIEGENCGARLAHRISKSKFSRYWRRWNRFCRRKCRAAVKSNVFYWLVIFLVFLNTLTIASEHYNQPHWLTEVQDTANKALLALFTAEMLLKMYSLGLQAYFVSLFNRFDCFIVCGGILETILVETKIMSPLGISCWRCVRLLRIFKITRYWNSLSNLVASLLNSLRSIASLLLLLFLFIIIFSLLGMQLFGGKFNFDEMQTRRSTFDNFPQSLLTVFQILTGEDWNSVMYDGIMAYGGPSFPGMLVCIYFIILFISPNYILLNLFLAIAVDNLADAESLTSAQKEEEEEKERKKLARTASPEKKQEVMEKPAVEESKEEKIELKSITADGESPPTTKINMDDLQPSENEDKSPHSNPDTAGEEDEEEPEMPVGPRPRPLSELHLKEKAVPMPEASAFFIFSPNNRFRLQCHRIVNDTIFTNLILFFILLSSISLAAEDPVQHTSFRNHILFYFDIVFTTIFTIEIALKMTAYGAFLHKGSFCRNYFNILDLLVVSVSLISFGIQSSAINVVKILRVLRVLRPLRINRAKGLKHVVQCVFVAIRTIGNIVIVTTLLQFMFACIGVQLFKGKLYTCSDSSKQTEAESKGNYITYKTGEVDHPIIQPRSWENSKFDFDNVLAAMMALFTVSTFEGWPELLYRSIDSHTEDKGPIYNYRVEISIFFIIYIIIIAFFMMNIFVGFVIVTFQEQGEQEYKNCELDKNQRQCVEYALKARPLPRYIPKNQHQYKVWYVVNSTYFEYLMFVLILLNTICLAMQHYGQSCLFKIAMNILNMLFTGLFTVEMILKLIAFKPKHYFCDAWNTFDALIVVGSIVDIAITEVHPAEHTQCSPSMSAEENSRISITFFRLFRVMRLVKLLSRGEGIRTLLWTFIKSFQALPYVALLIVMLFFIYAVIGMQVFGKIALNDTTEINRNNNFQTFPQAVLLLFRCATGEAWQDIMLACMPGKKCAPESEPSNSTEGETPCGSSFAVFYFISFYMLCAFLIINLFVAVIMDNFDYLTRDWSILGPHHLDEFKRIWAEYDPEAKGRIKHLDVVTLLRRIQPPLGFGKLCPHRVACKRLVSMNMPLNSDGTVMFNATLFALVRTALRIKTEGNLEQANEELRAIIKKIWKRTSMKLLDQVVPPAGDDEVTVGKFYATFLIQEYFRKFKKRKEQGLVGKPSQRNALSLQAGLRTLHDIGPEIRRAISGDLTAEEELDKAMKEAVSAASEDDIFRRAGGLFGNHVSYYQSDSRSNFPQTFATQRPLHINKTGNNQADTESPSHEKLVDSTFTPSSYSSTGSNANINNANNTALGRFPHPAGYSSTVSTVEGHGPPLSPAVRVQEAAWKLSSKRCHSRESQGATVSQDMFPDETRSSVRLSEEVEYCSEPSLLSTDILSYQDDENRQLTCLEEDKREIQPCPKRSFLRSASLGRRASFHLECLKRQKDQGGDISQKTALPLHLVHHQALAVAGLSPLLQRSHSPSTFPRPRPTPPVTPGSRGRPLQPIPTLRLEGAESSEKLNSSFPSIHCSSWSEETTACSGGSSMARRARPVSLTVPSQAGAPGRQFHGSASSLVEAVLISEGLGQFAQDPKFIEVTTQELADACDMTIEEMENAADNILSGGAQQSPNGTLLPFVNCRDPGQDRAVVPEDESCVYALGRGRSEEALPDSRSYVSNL
Sequence of calcium channel (ileum) (P22002 whole entry): as above

For `CN(C)c1ccc(CCN2CCCC[C@@H]2CN2c3ccccc3COc3ccccc32)cc1` [Example 7, (R)-5,11-Dihydro-5-[1-(4-dimethylaminophenethyl)piperidine-2-ylmethyl]dibenzo[b,e][1,4]oxazepine Dihydrochloride], the inhibition at 0.1 µM [1] was 23% and the inhibition at 0.1 µM (calcium channel (ileum)) was 78%.

`COc1ccc(CCN2CCCC[C@@H]2CN2c3ccccc3COc3ccccc32)cc1.Cl` [Example 1, (R)-5,11-Dihydro-5-[1-(4-methoxyphenethyl)piperidine-2-ylmethyl]dibenzo[b,e][1,4]oxazepine Hydrochloride] showed an inhibition at 0.1 µM [1] of 38%, a melting point of 199 to 201 °C and an inhibition at 0.1 µM (calcium channel (ileum)) of 90%.

`COc1ccc(CCN2CC[C@@H](N3c4ccccc4COc4ccccc43)C2)cc1.Cl` [Example 8, (R)-5,11-Dihydro-5-[1-(4-methoxyphenethyl)pyrrolidine-3-yl] dibenzo[b,e][1,4]oxazepine Hydrochloride] showed an inhibition at 0.1 µM [1] of 52%, a melting point of 224 to 226 °C and an inhibition at 0.1 µM (calcium channel (ileum)) of 100%.

Compound `CN(CCc1ccc(Cl)cc1)CCN1c2ccccc2COc2ccccc21` [Example 18, 5-[2-[N-(4-chlorophenethyl)-N-methylamino]ethyl]-5,11-dihydrodibenzo [b,e][1,4]oxazepine Hydrochloride] has an inhibition at 0.1 µM [1] of 34% and an inhibition at 0.1 µM (calcium channel (ileum)) of 70%.

`c1ccc2c(c1)COc1ccccc1N2C[C@H]1CCCCN1CCc1ccc2c(c1)OCO2` [Example 5, (R)-5,11-Dihydro-5-[1-(3,4-methylenedioxyphenethyl)piperidine-2-yl-methyl] dibenzo[b,e][1,4]oxazepine Hydrochloride] showed an inhibition at 0.1 µM [1] of 27% and an inhibition at 0.1 µM (calcium channel (ileum)) of 66%.

With `Clc1ccc(CCN2CCCC[C@@H]2CN2c3ccccc3COc3ccccc32)cc1` [Example 6, (R)-5-[1-(4-chlorophenethyl)piperidine-2-ylmethyl]-5,11-dihydrodibenzo [b,e][1,4]oxazepine Hydrochloride] the inhibition at 0.1 µM [1] was 25% and the inhibition at 0.1 µM (calcium channel (ileum)) was 75%.

`CN(CCc1ccc2c(c1)OCO2)CCN1c2ccccc2COc2ccccc21` [Example 17, 5,11-Dihydro-5-[2-[N-methyl-N-(3,4-methylenedioxyphenethyl)amino]ethyl]dibenzo[b,e][1,4]oxazepine Hydrochloride] gave an inhibition at 0.1 µM [1] of 30% and an inhibition at 0.1 µM (calcium channel (ileum)) of 78%.

Work on `COc1ccc(CCCN2CCCC[C@@H]2CN2c3ccccc3COc3ccccc32)cc1` [Example 4, (R)-5,11-Dihydro-5-[1-[3-(4-methoxyphenyl)propyl]piperidine-2-ylmethyl]dibenzo[b,e][1,4]oxazepine Hydrochloride] yielded an inhibition at 0.1 µM [1] of 32% and an inhibition at 0.1 µM (calcium channel (ileum)) of 64%.

`Clc1ccc(CCN2CC[C@@H](N3c4ccccc4COc4ccccc43)C2)cc1` [Example 13, (R)-5-[1-(4-chlorophenethyl)pyrrolidine-3-yl]-5,11-dihydrodibenzo[b,e][1,4] oxazepine Hydrochloride] showed an inhibition at 0.1 µM [1] of 38% and an inhibition at 0.1 µM (calcium channel (ileum)) of 76%.

Compound `COc1ccc(CCN2CCCC2CN2c3ccccc3CSc3ccccc32)cc1` (centres unmarked) [Compound A, reference compound] has an inhibition at 0.1 µM [1] of 9% and an inhibition at 0.1 µM (calcium channel (ileum)) of 48%.

`COc1ccc(CCCN(C)CCN2c3ccccc3COc3ccccc32)cc1` [Example 16, 5,11-Dihydro-5-[2-[N -[3-(4-methoxyphenyl)propyl]-N-methylamino]ethyl]dibenzo[b,e][1,4]oxazepine Hydrochloride] gave an inhibition at 0.1 µM [1] of 28% and an inhibition at 0.1 µM (calcium channel (ileum)) of 82%.

`COc1ccc(CCN(C)CCN2c3ccccc3COc3ccccc32)cc1.Cl` [Example 14, 5,11-Dihydro-5-[2-[N-(4-methoxyphenethyl)-N-methylamino]ethyl]dibenzo[b,e][1,4]oxazepine Hydrochloride] gave an inhibition at 0.1 µM [1] of 43%, a melting point of 139 to 140 °C and an inhibition at 0.1 µM (calcium channel (ileum)) of 105%.

`CN(C)c1ccc(CCN2CC[C@@H](N3c4ccccc4COc4ccccc43)C2)cc1.Cl` [Example 10, (R)-5,11-Dihydro-5-[1-(4-dimethylaminophenethyl)pyrrolidine-3-yl]dibenzo[b,e][1,4]oxazepine Hydrochloride] showed an inhibition at 0.1 µM [1] of 59%, a melting point of 219 to 220 °C and an inhibition at 0.1 µM (calcium channel (ileum)) of 116%.

In the case of `CN(CCc1ccc(N(C)C)cc1)CCN1c2ccccc2COc2ccccc21` [Example 19, 5,11-Dihydro-5-[2-[N-(4-dimethylaminophenethyl)-N-methylamino]ethyl]dibenzo[b,e][1,4]oxazepine Dihydrochloride], the inhibition at 0.1 µM [1] was 39% and the inhibition at 0.1 µM (calcium channel (ileum)) was 76%.

`COc1cccc(CCN(C)CCN2c3ccccc3COc3ccccc32)c1` [Example 15, 5,11-Dihydro-5-[2-[N-(3-methoxyphenethyl)-N-methylamino]ethyl]dibenzo[b,e][1,4]oxazepine Hydrochloride] showed an inhibition at 0.1 µM [1] of 29% and an inhibition at 0.1 µM (calcium channel (ileum)) of 82%.

`c1ccc2c(c1)COc1ccccc1N2[C@@H]1CCN(CCc2ccc3c(c2)OCO3)C1` [Example 12, (R)-5,11-Dihydro-5-[1-(3,4-methylenedioxyphenethyl)pyrrolidine-3-yl]dibenzo[b,e][1,4]oxazepine Hydrochloride] gave an inhibition at 0.1 µM [1] of 51% and an inhibition at 0.1 µM (calcium channel (ileum)) of 77%.

With `COc1ccc(CCN2CCC[C@@H]2CN2c3ccccc3COc3ccccc32)cc1` [Compound B, reference compound] the inhibition at 0.1 µM [1] was 17% and the inhibition at 0.1 µM (calcium channel (ileum)) was 67%.

With `COc1ccc(CCCN2CC[C@@H](N3c4ccccc4COc4ccccc43)C2)cc1` [Example 11, (R)-5,11-Dihydro-5-[1-[3-(4-methoxyphenyl)propyl]pyrrolidine-3-yl]dibenzo[b,e][1,4]oxazepine Hydrochloride] the inhibition at 0.1 µM [1] was 61% and the inhibition at 0.1 µM (calcium channel (ileum)) was 83%.

In the case of `COc1cccc(CCN2CCCC[C@@H]2CN2c3ccccc3COc3ccccc32)c1` [Example 3, (R)-5,11-Dihydro-5-[1-(3-methoxyphenethyl)piperidine-2-ylmethyl] dibenzo[b,e][1,4]oxazepine Hydrochloride], the inhibition at 0.1 µM [1] was 33% and the inhibition at 0.1 µM (calcium channel (ileum)) was 61%.

Compound `CN(CCc1cccc(N(C)C)c1)CCN1c2ccccc2COc2ccccc21` [Example 20, 5,11-Dihydro-5-[2-[N-(3-dimethylaminophenethyl)-N-methylamino]ethyl]dibenzo[b,e][1,4]oxazepine Dihydrochloride] has an inhibition at 0.1 µM [1] of 28% and an inhibition at 0.1 µM (calcium channel (ileum)) of 50%.
